What all share (type): biochemical
The test system of test [1] is template specifying incorporation of a single γ-labeled nucleotide. Kind of test: Real time on-surface single molecule detection of γ-labeled nucleotide incorporation. To be noted: number of signals relative to parent enzyme. On the procedure: Real time “On surface” experiments were performed to characterize the activity of the Phi29 variants on an exemplary single molecule sequencing system (FIGS. 72A and B). Chambered slides were prepared to facilitate injection and multiple experiments data collection from several chambers using a single slide. The template specified incorporation of a single γ-labeled nucleotide. The samples were excited using a 488 nm Argon ion laser at 2.5 mW and the data were collected at 25 ms integration time. Each stream of data was collected for 1500 frames, consecutive streams were collected for ˜5 minutes by moving to new fields of views (FOVs). FRETAN software was used to obtain the donor and acceptor traces.
After trace analysis, the selected signals (with acceptor signal over background greater than 4, i.e., ASN≧4) were characterized by examining attributes including duration, ASN and timing of signal appearance (i.e., start of signals). The variants that are of special interest include Variants 2 and 3.

The subject of test [2] is dG2Oy650. Kind of test: Inc50: nucleotide concentration at which half of the primer is extended one base in sixty seconds. To be noted: dG2Oy650 in duplicate. The text has this:
In one exemplary embodiment, an alanine was substituted for the valine at position 250. As is seen in FIG. 70C (Variant 5) the rate of extension by this mutant polymerase is decreased relative to wild type. […] To compensate for the reduced extension we combined V250A with several mutations that increase binding efficiency of γ-modified nucleotides. […] As is seen in FIG. 70C, Variant 2, the extension of the V250A mutant is improved through introduction of the E375Y mutation. The mutation V250A was also combined with the mutations E375A/Q380A as well as E375C.

Test [3] relates to 5′ fluorescein-labeled primer:template duplex. Kind of test: Replication fidelity: primer extension with incorrect (non-complementary) gamma-labeled nucleotide. To be noted: incorrect gamma-labeled nucleotide in lieu of the complementary one. On the procedure: To assay the replication fidelity of each mutant Phi29 polymerase protein, primer extensions were carried out in the same manner, except that an incorrect (i.e., non-complementary) gamma-labeled nucleotide was added to the extension mixture in lieu of the complementary nucleotide, and the amount of extended product following extension in presence of the incorrect nucleotide was analyzed.

For test [4] the test system is unchanged. The test can be described thus: Ensemble primer extension with gamma-labeled dNTP by Phi29 mutant protein. Conditions: for extension (FIG. 70C, 70D): ensemble PAGE analyses, γ-nucleotides; for Ensemble Extension Activity: γ-nucleotide incorporation: relative to parent Phi29 exo(−) D12A/D66A, 0.5 μM or 5 μM gamma-labeled dNTP, 10 seconds to 5 minutes. The text has this:
Table 1, below, summarizes the ability of each mutant Phi29 polymerase to incorporate gamma-labeled nucleotides (as indicated in the column entitled “Ensemble Extension Activity”), fidelity of replication (as indicated in the column entitled “Fidelity”) and for activity in a single-molecule detected system, as depicted in FIGS. 20-59′ and 69-76 and associated description (see below), and indicated in the last column, entitled “Activity on Detection System.” Each and every mutation introduced into a given Phi29 mutant protein is listed in the column entitled “Mutations”; mutations are designated by the original amino acid/its position/its replacement, e.g., V250A means that valine at position 250 was replaced by alanine by site specific mutagenesis. If two or more amino acid substitutions are made, then each is designated as above and separated by a “/”. The predicted effect of a given mutation on polymerase activity, based on structure-function analysis of Phi29 polymerase, is provided in the column entitled “Expected Effect.” The various Phi29 mutants generated via selective mutagenesis, along with any applicable results of extension studies, fidelity assays and single molecule detection studies using each mutant protein, are collectively summarized in Table 1, below. To perform the extension studies, 330 nM Phi29 mutant protein and 100 nM 5′ fluorescein-labeled primer:template duplex were co-incubated in a solution comprising 50 mM Tris (pH 7.0), 2 mM MnCl2, 2 mM DTT, 0.1% Triton-X-100, 0.01% Tween-20. The reactions were initiated by addition of 0.5 μM or 5 μM of gamma-labeled dNTP, and quenched via addition of 30 mM EDTA at timepoints ranging from 10 seconds to 5 minutes. The reaction products were then separated on a 20% denaturing acrylamide gel and imaged on a Bio-Rad Molecular Imager FX. The intensity of each reaction product was quantified using Bio-Rad Quantity One software. FIGS. 20-59′ depict the results of extension studies conducted using specific Phi29 mutants.

Test [5] can be described thus: Initial tests of reaction rate of alpha-phosphate modified dGTP. Conditions: data not shown.
For test [6], the system named is γ-dGTP. The test can be described thus: 7-base homopolymeric extension reactions (FIG. 19B, 19C). To be noted: 1 μM γ-dGTP. The text has this:
When the aspartic acid at position 456 is mutated, the activity is reduced but still detectable. FIG. […]
Three residues that have been implicated in catalysis of nucleotide incorporation by phi29 DNA polymerase are D458, D456, and V250 (Berman, Kamtekar et al., 2007). […] In one embodiment, D456 is mutated to glutamic acid, thus distorting the active site, but still allowing catalysis due to the presence of the functional group. The backbone of V250 additionally appears to play a role in catalysis; in some embodiments, the chemistry step will be slowed by mutating the V250 residue to an isoleucine or alanine in order to slow the chemistry step.

Test [7] deals with dATP-1-ROX. The test can be described thus: Primer extension by various polymerases with dATP-1-ROX or natural dATP. Conditions: dATP-1-ROX vs natural dATP, optimal temperature of each polymerase. On the procedure: FIG. 6 depicts the results of experiments to assess the nucleotide incorporation efficiency of various DNA mutated and non-mutated polymerases (Sequenase; Thermo-Sequenase; wild-type Taq from Promega; HIV reverse transcriptase; and a mutant Taq polymerase comprising the mutation F647C) using both natural (unlabeled) dATP as well as the gamma-modified nucleotide dATP-1-Rox. Each reaction was conducted at the individual polymerase's optimal temperature with equimolar concentrations of enzymatically cleared gamma-labeled nucleotides and units of polymerase. […] Primer extension reactions were performed in the presence of the nucleotide dATP-1-ROX or natural dATP. The ‘Neg Control’ is a control lacking both polymerase and nucleotide. The extension products were size separated using denaturing gel electrophoresis, and visualized on a Bio-Rad fx Imager. Incorporation of the gamma-labeled nucleotide results in the production of a resolvable extension duplex that indicates incorporation of a single dATP. The non-extended primer is the lower band; extension products are more slowly migrating. […] FIG. 81 is a solid ribbon diagram generated in DS Viewer Pro of Taq DNA Polymerase.

With “E375A: Phi29 exo(−) (D12A/D66A) polymerase mutant [Variant E375A]”, the “Activity on Detection System: more signals” value in test [1] came out at 3x more signals. In test [2], the Inc50 entry was “reduced”. Further, the “Fidelity (mis-incorporation)” value in test [3] is on record as “No mis-”. Besides, in test [4], the “extension (FIG. 70C, 70D)” value was “increased extension” and the “Ensemble Extension Activity: γ-nucleotide incorporation” value was “More efficient”.

Consider `BP(=O)(OCC1OC(n2cnc3c(=O)[nH]c(N)nc32)CC1O)OP(=O)(O)OP(=O)(O)O` (stereo not drawn) [[alpha]-P-borano-dGTP], for which, in test [5], the “reduction of reaction rate as compared to the natural counterpart” value is 1.32 fold.

Take `Nc1nc2c(ncn2[C@H]2C[C@H](O)[C@@H](COP(O)(=S)OP(=O)(O)OP(=O)(O)O)O2)c(=O)[nH]1` (stereo partly drawn) [[alpha]-P-thiol-dGTP]: the “reduction of reaction rate as compared to the natural counterpart” value in test [5] was 1.61 fold.

Regarding “V250A: Phi29 exo(−) (D12A/D66A) polymerase mutant [Variant V250A]”, in test [1], the “Activity on Detection System: more signals” value is recorded as “Fewer signals”. The Inc50 result in test [2] is recorded as “remains relatively unaffected”. Also, the “extension within a minute” value in test [6] was “at least 5 bases”. For the same molecule, in test [6] (30 second to 1 minute extension time), the “extension under limiting conditions” value is given as “visibly slowing down extension”. In test [4], the “extension (FIG. 70C, 70D)” value is recorded as “decreased” and the “Ensemble Extension Activity: γ-nucleotide incorporation” value is listed as “Decreased rate”.

“Phi29: Phi29 polymerase benchmark of the Inc50 comparison in Table 1; probably the exo(−) parent [reference compound]”: the Inc50 result in test [2] is “(Phi29 = 0.14)”.

B1: VTaq647C: engineered mutant Taq polymerase comprising the mutation F647C, SEQ. ID: 7 (protein, listed as Thermus aquaticus)
chain: ALEEAPWPPPEGAFVGFVLSRKEPMWADLLALAAARGGRVHRAPEPYKALRDLKEARGLLAKDLSVLALREGLGLPPGDDPMLLAYLLDPSNTTPEGVARRYGGEWTEEAGERAALSERLFANLWGRLEGEERLLWLYREVERPLSAVLAHMEATGVRLDVAYLRALSLEVAEEIARLEAEVFRLAGHPFNLNSRDQLERVLFDELGLPAIGKTEKTGKRSTSAAVLEALREAHPIVEKILQYRELTKLKSTYIDPLPDLIHPRTGRLHTRFNQTATATGRLSSSDPNLQNIPVRTPLGQRIRRAFIAEEGWLLVALDYSQIELRVLAHLSGDENLIRVFQEGRDIHTETASWMCGVPREAVDPLMRRAAKTINFGVLYGMSAHRLSQELAIPYEEAQAFIERYFQSFPKVRAWIEKTLEEGRRRGYVETLFGRRRYVPDLEARVKSVREAAERMAFNMPVQGTAADLMKLAMVKLFPRLEEMGARMLLQVHDELVLEAPKERAEAVARLAKEVMEGVYPLAVPLEVEVGIGEDWLSAKE
Take B1: in test [7], the “incorporation of gamma-labeled nucleotide” value is on record as “significantly improved incorporation”.

For the origin of these results see patent US20110165652A1, “COMPOSITIONS, METHODS AND SYSTEMS FOR SINGLE MOLECULE SEQUENCING” (LIFE TECHNOLOGIES CORPORATION, priority 2008, published 2011).
